“And” between values parts separate entries of the source, which are not always exact repeats. Equal entries are not always repeated.
How the values were obtained:
[1] = test system: LHGFR0N7C expressed in HEK293FT cells; assay: Specificity of LHGFR0N7C expressed in permeabilized HEK293FT cells, 1 mM compounds; format: cell-based, human (HEK293FT cells); settings: Supplementary Fig. 17d; Control about 1
Method: (§1) To characterize the sensitivity and specificity of LHGFR expressed in HEK293FT cells, cells were trypsinized 48 h following transfection and suspended in 1× Hank’s balanced salt solution supplemented with 20 mM HEPES. […] Digitonin at a concentration of 10 μM was used to induce cell permeabilization and deplete intracellular L-2-HG for in vivo response curves construction. Then, the fluorescence intensities were determined by a SpectraMax i3 fluorescence plate reader (Molecular Devices, USA) with excitation at 430 nm and emission at 485 nm (mTFP) and 528 nm (Venus). Basal L-2-HG concentration in HEK293FT cells under physiological conditions was determined by substituting the emission ratios of non-permeabilized HEK293FT cells into the calibrated in vivo response curves.

LHGFR0N7C = assay: Influence of other compounds on the response of purified LHGFR0N7C to L-2-HG; format: binding, Pseudomonas putida W619; settings: Suppl. Fig. 9b; L-2-HG alone or with the compound; three replicates
Outline: (§2)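 Purified L-2-HG biosensors were mixed 3:1 with test compounds in 50 mM Tris-HCl pH 7.4, excited at 430 nm, and the 528 nm (Venus)/485 nm (mTFP) emission was read. Responses were fitted with a Hill model giving apparent Kd and Hill slope.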

[2] = test system: LHGFR0N3C expressed in HEK293FT cells; assay: Specificity of LHGFR0N3C expressed in permeabilized HEK293FT cells, 1 mM compounds; format: cell-based, human (HEK293FT cells); settings: 1 mM compound, cells permeabilized with 10 μM digitonin, normalized to control
Method: as §1

[3] = test system: LHGFR0N3C expressed in E. coli BL21(DE3); assay: Specificity of LHGFR0N3C expressed in E. coli BL21(DE3), 1 mM compounds; format: cell-based; settings: for Emission ratio: 1 mM compound, Fig. 5c; for Increase of the emission ratio in E. coli BL21(DE3): 1 mM exogenous compound
Method: (§3) To characterize the sensitivity and specificity of LHGFR expressed in E. coli BL21(DE3), 90 μL cell suspensions following 8 h carbon starvation were mixed with 10 μL increasing concentrations of L-2-HG or other compounds, and then added into a black 96-well plate (total 100 μL/per well), the fluorescence intensities were determined using an EnSight microplate reader (PerkinElmer, USA) and the following instrument settings: excitation at 430 nm, emission at 485 nm (mTFP) and 528 nm (Venus), time intervals of 5 min, the temperature at 37 °C, and shake at 180 rpm.

LHGFR0N3C [4] = assay: Influence of other compounds on the response of purified LHGFR0N3C to L-2-HG; format: binding, Pseudomonas putida W619; settings: for Emission ratio: Suppl. Fig. 9a, L-2-HG alone or with the compound, three replicates
Outline: as §2

[5] = test system: LHGFR0N7C expressed in E. coli BL21(DE3); assay: Specificity of LHGFR0N7C expressed in E. coli BL21(DE3), 1 mM compounds; format: cell-based; settings: Supplementary Fig. 13c
Method: as §3

LhgO = assay: Enzymatic assay of LhgO in crude extracts of P. putida KT2440 derivatives grown on different carbon sources (induction of lhgO under LhgR control); format: cell-based, Pseudomonas putida; settings: for Induction of lhgO expression / effector molecule of LhgR: gene segment F2-lhgR-F1-lhgO in P. putida KT2440 derivatives
Method: The cells were harvested at mid-log phase, washed twice and resuspended in phosphate-buffered saline (PBS), then lysed by sonication on ice after the addition of 1 mM phenylmethylsulfonyl fluoride (PMSF). […] Protein concentrations of the supernatants were determined using the Bradford protein assay kit (Sangon, China). […] The 800 μL reaction solution contained 0.1 mM […], 0.05 mM DCPIP, 0.2 mM phenazine methosulfate (PMS) in PBS and 40 μL crude extracts.

LHGFR0N3C [6] = assay: Specificity of purified LHGFR0N3C, emission ratio with 240 μM compounds; format: binding, Pseudomonas putida W619; settings: 240 μM compound
[7] = crude extract of DcsiRDlhgO-pME6032 grown in MSM with the compound as sole carbon source

Compound: O=C(O)CCCC(=O)O [Glutarate, glutarate]
- Normalized emission ratio [1]: 0.9993 and 0.9933 and 0.9442
- Emission ratio (LHGFR0N7C): 2.576 and 2.574 and 2.627
- Normalized emission ratio [2]: 0.9633 and 1.016 and 1.046
- Emission ratio ([3]; 0 min): 1.019 and 1.014 and 1.009
- Emission ratio ([3]; 5 min): 1.014 and 1.015 and 0.998
- Emission ratio ([3]; 10 min): 1.024 and 1.012 (2×)
- Emission ratio ([3]; 15 min): 1.024 and 1.01 and 1.013
- Emission ratio ([3]; 20 min): 1.025 and 1.007 and 1.004
- Emission ratio ([3]; 25 min): 1.02 and 1.008 and 1.012
- Emission ratio ([3]; 30 min): 1.022 and 1.0136 and 1.013
- Emission ratio ([3]; 35 min): 1.0109 and 1.008 and 1.004
- Emission ratio ([3]; 40 min): 1.017 and 1.002 and 1.012
- Emission ratio ([3]; 45 min): 1.022 and 1.0116 and 1.014
- Emission ratio ([3]; 50 min): 1.01 and 1 and 1.016
- Emission ratio ([3]; 55 min): 1.008 and 1.012 and 1.02
- Emission ratio ([3]; 60 min): 1.014 and 1.01 and 1.011
- Emission ratio ([3]; 65 min): 1.021 and 1.007 and 1.017
- Emission ratio ([3]; 70 min): 1.032 and 1.006 and 1.011
- Emission ratio ([3]; 75 min): 1.016 and 1.008 and 1.028
- Emission ratio ([3]; 80 min): 0.9989 and 1.018 and 1.024
- Emission ratio ([3]; 85 min): 1.011 and 1.013 and 1.026
- Emission ratio ([3]; 90 min): 1.005 and 1.016 and 1.027
- Increase of the emission ratio in E. coli BL21(DE3) [3]: could not
- Emission ratio (LHGFR0N3C [4]): 2.055 and 2.045 and 2.058
- normalized emission ratio of biosensor expressed in E. coli ([5]; time 0 min): 1.0192 and 1.012 and 1.0143
- normalized emission ratio of biosensor expressed in E. coli ([5]; time 5 min): 1.029 and 1.007 and 0.9939
- normalized emission ratio of biosensor expressed in E. coli ([5]; time 10 min): 1.033 and 1.008 (2×)
- normalized emission ratio of biosensor expressed in E. coli ([5]; time 15 min): 1.028 and 1.024 and 1.005
- normalized emission ratio of biosensor expressed in E. coli ([5]; time 20 min): 1.023 and 1.015 and 1.006
- normalized emission ratio of biosensor expressed in E. coli ([5]; time 25 min): 1.0228 and 1.021 and 1.005
- normalized emission ratio of biosensor expressed in E. coli ([5]; time 30 min): 1.026 and 1.014 and 1.016
- normalized emission ratio of biosensor expressed in E. coli ([5]; time 35 min): 1.019 and 1.016 (2×)
- normalized emission ratio of biosensor expressed in E. coli ([5]; time 40 min): 1.0289 and 1.022 and 1.012
- normalized emission ratio of biosensor expressed in E. coli ([5]; time 45 min): 1.023 and 1.017 and 1.024
- normalized emission ratio of biosensor expressed in E. coli ([5]; time 50 min): 1.027 and 1.014 and 1.019
- normalized emission ratio of biosensor expressed in E. coli ([5]; time 55 min): 1.028 and 1.018 and 1.023
- normalized emission ratio of biosensor expressed in E. coli ([5]; time 60 min): 1.03 and 1.018 and 1.0254
- normalized emission ratio of biosensor expressed in E. coli ([5]; time 65 min): 1.027 and 1.013 and 1.037
- normalized emission ratio of biosensor expressed in E. coli ([5]; time 70 min): 1.027 and 1.018 and 1.0281
- normalized emission ratio of biosensor expressed in E. coli ([5]; time 75 min): 1.034 and 1.022 and 1.035
- normalized emission ratio of biosensor expressed in E. coli ([5]; time 80 min): 1.0287 and 1.026 and 1.039
- normalized emission ratio of biosensor expressed in E. coli ([5]; time 85 min): 1.03 and 1.021 and 1.038
- normalized emission ratio of biosensor expressed in E. coli ([5]; time 90 min): 1.036 and 1.0239 and 1.043
- LhgO activity (LhgO; crude extract of DcsiRDcsiDDlhgO-pME6032-F2-lhgR-F1-lhgO grown with the compound as sole carbon source): no activity of LhgO was detected
- LhgO activity (LhgO; crude extract of DcsiRDlhgO-pME6032-F2-lhgR-F1-lhgO grown with the compound as sole carbon source): 0.02427 and 0.01721 and 0.01877
- LhgO activity (LhgO; crude extract of DcsiRDlhgO-pME6032-F2-lhgR-F1-lhgO grown with the compound as sole carbon source, listed as glutarate): activity of LhgO was also detected
- LhgO activity (LhgO; [7]): 7.09E-04 and 9.66E-04 and 0.00113
- Induction of lhgO expression / effector molecule of LhgR (LhgO): neither D-2-HG nor glutarate can serve as the effector molecule of LhgR
- Emission ratio (LHGFR0N3C [6]): 1.395 and 1.399 and 1.404
- Induction of emission ratio changes (LHGFR0N3C [6]): None

Compound: O=C(O)CC[C@@H](O)C(=O)O [D-2-HG]
- Normalized emission ratio [1]: 1.116 and 1.067 and 1.082
- Emission ratio (LHGFR0N7C): 2.616 and 2.6121 and 2.633
- Normalized emission ratio [2]: 1.056 and 1.057 and 1.069
- Emission ratio ([3]; 0 min): 1.011 and 0.989 and 0.9926
- Emission ratio ([3]; 5 min): 1.03 and 1.001 and 1.013
- Emission ratio ([3]; 10 min): 1.043 and 1.03 and 1.027
- Emission ratio ([3]; 15 min): 1.0445 and 1.033 and 1.032
- Emission ratio ([3]; 20 min): 1.062 and 1.044 and 1.049
- Emission ratio ([3]; 25 min): 1.051 and 1.047 and 1.058
- Emission ratio ([3]; 30 min): 1.07 and 1.05 and 1.058
- Emission ratio ([3]; 35 min): 1.071 and 1.055 and 1.07
- Emission ratio ([3]; 40 min): 1.061 and 1.059 and 1.064
- Emission ratio ([3]; 45 min): 1.071 and 1.057 and 1.074
- Emission ratio ([3]; 50 min): 1.071 and 1.056 and 1.075
- Emission ratio ([3]; 55 min): 1.074 and 1.067 and 1.073
- Emission ratio ([3]; 60 min): 1.07 (2×) and 1.065
- Emission ratio ([3]; 65 min): 1.082 (2×) and 1.064
- Emission ratio ([3]; 70 min): 1.08 and 1.068 and 1.078
- Emission ratio ([3]; 75 min): 1.08 and 1.07 and 1.0822
- Emission ratio ([3]; 80 min): 1.068 and 1.078 and 1.077
- Emission ratio ([3]; 85 min): 1.078 and 1.065 and 1.085
- Emission ratio ([3]; 90 min): 1.07 and 1.071 and 1.074
- Increase of the emission ratio in E. coli BL21(DE3) [3]: could not
- Influence on the response of LHGFR0N3C to L-2-HG (LHGFR0N3C [4]; 240 μM D-2-HG, 1 mM 2-KG or 1 mM ATP for dose-response curves): could barely affect the response of LHGFR0N3C to L-2-HG
- Emission ratio (LHGFR0N3C [4]): 2.0547 and 2.056 and 2.045
- normalized emission ratio of biosensor expressed in E. coli ([5]; time 0 min): 1.005 and 1.001 and 1.025
- normalized emission ratio of biosensor expressed in E. coli ([5]; time 5 min): 1.058 and 1.062 and 1.055
- normalized emission ratio of biosensor expressed in E. coli ([5]; time 10 min): 1.088 and 1.077 and 1.073
- normalized emission ratio of biosensor expressed in E. coli ([5]; time 15 min): 1.099 and 1.097 and 1.073
- normalized emission ratio of biosensor expressed in E. coli ([5]; time 20 min): 1.1106 and 1.107 and 1.081
- normalized emission ratio of biosensor expressed in E. coli ([5]; time 25 min): 1.121 and 1.111 and 1.082
- normalized emission ratio of biosensor expressed in E. coli ([5]; time 30 min): 1.109 and 1.1104 and 1.081
- normalized emission ratio of biosensor expressed in E. coli ([5]; time 35 min): 1.129 and 1.12 and 1.084
- normalized emission ratio of biosensor expressed in E. coli ([5]; time 40 min): 1.119 and 1.117 and 1.099
- normalized emission ratio of biosensor expressed in E. coli ([5]; time 45 min): 1.1243 and 1.118 and 1.09
- normalized emission ratio of biosensor expressed in E. coli ([5]; time 50 min): 1.133 and 1.117 and 1.095
- normalized emission ratio of biosensor expressed in E. coli ([5]; time 55 min): 1.1262 and 1.1195 and 1.107
- normalized emission ratio of biosensor expressed in E. coli ([5]; time 60 min): 1.117 and 1.122 and 1.102
- normalized emission ratio of biosensor expressed in E. coli ([5]; time 65 min): 1.12 and 1.121 and 1.101
- normalized emission ratio of biosensor expressed in E. coli ([5]; time 70 min): 1.122 and 1.126 and 1.113
- normalized emission ratio of biosensor expressed in E. coli ([5]; time 75 min): 1.124 and 1.132 and 1.112
- normalized emission ratio of biosensor expressed in E. coli ([5]; time 80 min): 1.131 and 1.12 and 1.117
- normalized emission ratio of biosensor expressed in E. coli ([5]; time 85 min): 1.127 and 1.1355 and 1.123
- normalized emission ratio of biosensor expressed in E. coli ([5]; time 90 min): 1.127 and 1.137 and 1.122
- LhgO activity (LhgO; [7]): 7.06E-04 and 6.93E-04 and 7.09E-04
- Induction of lhgO expression / effector molecule of LhgR (LhgO): neither D-2-HG nor glutarate can serve as the effector molecule of LhgR
- Emission ratio (LHGFR0N3C [6]): 1.4562 and 1.441 and 1.426

Reference: paper PMC8206213, “An L-2-hydroxyglutarate biosensor based on specific transcriptional regulator LhgR” (Nature Communications, 2021)
